In US10907187B2, “Fungal strains and methods of use” (DANISCO US INC., priority 2015, dated 2021):
Like-named read-outs stand apart in the source and are kept apart here.

What was measured:
Assay type in all cases: cell-based, Trichoderma reesei
[1] = system: T. reesei strain RLP37 NikM743T; experiment: Liquid medium fungicide screen, conidiospore germination in YEG; conditions: all concentrations tested (11.25, 22.5, 45 or 90 μM), overnight at 28° C.
Description: (§1) For use in liquid medium fungicide screens, conidiospores from T. reesei strains RLP37 and RLP37 NikM743T were harvested and diluted to a concentration of 10,000/ml. Equal numbers of spores were inoculated into liquid YEG medium (5 g/L yeast extract, 22 g/1 glucose. H2O) containing 0, 11.25, 22.5, 45 or 90 μM iprodione or fludioxonil and allowed to germinate overnight at 28° C. […] Furthermore, sensitivity of RLP37 and resistance of RLP37 NikM743T persisted when inoculation culture was scaled up to […].

[2] = system: T. reesei strain RLP37; experiment: as above; conditions: for germination and hyphal growth of conidiospores: 11.25 μM fungicide, overnight at 28° C., 10,000 spores/ml
Description: as §1

[3] = system: T. reesei strain RLP37 Nik^M743T; experiment: Agar (solid) medium fungicide screen, colony growth on Vogel's minimal medium with glucose; conditions: 11.25, 22.5, 45 or 90 μM, agar plates, 3 days at 32° C.
Description: (§2) For use in agar (solid) medium fungicide screens or selections, conidiospores from T. reesei strains RLP37 and RLP37 Nik^M743T were harvested and diluted to a concentration such that a known number of spores were plated per 10 cm plate containing nutrient agar Vogel's minimal medium with glucose (Vogel, Microbial Genet. Bull. 13:42-43 (1956); Vogel, Am. Nat. 98:435-446 (1964)). Equal numbers of spores for each strain were spread onto the surface of nutrient agar plates containing 0, 11.25, 22.5, 45 or 90 μM iprodione and allowed to grow for 3 days at 32° C. […] This mixed population of spores was spread onto Vogel's minimal medium agar containing 45 μM iprodione and allowed to grow for 3 days at 32° C. Colonies were counted and evaluated for presence of the nik1^M743T mutation by PCR and sequencing (Sequetech, Mountain View, Calif., USA), using the following primers: […]

[4] = system: T. reesei strain RLP37; experiment: as above; conditions: agar plates, 3 days at 32° C.
Description: as §2

| Compound | germination and hyphal growth of conidiospores [1] | germination and growth of conidiospores [2] | germination and hyphal growth of conidiospores ([2]; liquid YEG medium) | colony growth [3] | colony growth ([4]; 45 μM and above) | colony growth ([4]; 11.25 and 22.5 μM) | germination and growth of conidiospores ([2]; concentrations above 11.25 μM (22.5, 45 or 90 μM), liquid YEG medium, overnight at 28° C.) |
| --- | --- | --- | --- | --- | --- | --- | --- |
| CC(C)NC(=O)N1CC(=O)N(c2cc(Cl)cc(Cl)c2)C1=O [iprodione] | germinated and produced elongated hyphae | complete inhibition of germination and growth | clear inhibition of hyphal growth | grew similarly to colonies growing on nutrient agar plates without iprodione | failed to grow at all | failed to grow to any larger than the size of the tip of a pin |  |
| N#Cc1c[nH]cc1-c1cccc2c1OC(F)(F)O2 [fludioxonil] | germinated and produced elongated hyphae |  | clear inhibition of hyphal growth |  |  |  | complete inhibition of germination and growth |
